Patent publication US9029389B2 (Institut Pasteur Korea, priority 2011, dated 2015)

molecular target: T1, Human 5-lipoxygenase (Homo sapiens, UniProt P09917); assay: Activity of compounds against 5-LO enzyme (LTB4 measurement and/or fluorescence method); type: biochemical; conditions: 5-LO, single concentration of 10 uM in duplicate
T1 construct: purchased Cayman 60402; host or cells: insect cells
T1 sequence (P09917 1-674): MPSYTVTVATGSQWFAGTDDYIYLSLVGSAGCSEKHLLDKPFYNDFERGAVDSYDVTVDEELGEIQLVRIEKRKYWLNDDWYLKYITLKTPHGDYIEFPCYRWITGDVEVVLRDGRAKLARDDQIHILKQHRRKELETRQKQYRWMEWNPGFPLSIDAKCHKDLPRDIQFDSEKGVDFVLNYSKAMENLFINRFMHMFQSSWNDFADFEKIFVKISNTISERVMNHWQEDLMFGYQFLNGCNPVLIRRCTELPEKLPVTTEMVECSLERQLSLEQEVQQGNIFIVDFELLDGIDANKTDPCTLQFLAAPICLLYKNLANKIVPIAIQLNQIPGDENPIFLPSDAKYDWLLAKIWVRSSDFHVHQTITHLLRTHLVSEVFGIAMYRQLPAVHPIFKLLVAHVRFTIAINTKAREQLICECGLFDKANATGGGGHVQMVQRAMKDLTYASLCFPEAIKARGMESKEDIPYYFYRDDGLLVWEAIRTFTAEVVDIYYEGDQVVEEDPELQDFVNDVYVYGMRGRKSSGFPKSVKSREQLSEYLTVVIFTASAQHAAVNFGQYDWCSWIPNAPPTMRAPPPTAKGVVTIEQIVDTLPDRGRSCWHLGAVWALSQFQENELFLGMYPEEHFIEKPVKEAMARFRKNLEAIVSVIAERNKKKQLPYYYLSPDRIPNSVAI
In short: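 Insect-cell human 5-LO preincubated 15 min at RT with compound (pH 7.4, 2 mM CaCl2, 0.1 mM ATP, 1% DMSO), then 3 uM arachidonic acid for 5 min at 37 °C; LTB4 quantified by EIA and/or LC/MS/MS. Alternatively, fluorescence of 5-HpETE via H2DCFDA, 100 uM ATP, 3 uM arachidonic acid, 5 min, RT; single 10 uM screen then 6- or 11-point IC50.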

| SMILES | inhibition at 10 µM |
| --- | --- |
| CCc1nc2ccc(Br)cn2c1C(=O)NCc1ccc(Oc2ccc(F)cc2)cc1 [compound 177, 6-Bromo-2-ethyl-N-(4-(4-fluorophenoxy)benzyl)imidazo[1,2-a]pyridine-3-carboxamide] | < 40% |
| CCc1nc2ccc(Cl)cn2c1C(=O)NCc1ccc(N2CCCCC2)cc1 [compound 74, 6-Chloro-2-ethyl-N-(4-(piperidin-1-yl)benzyl)imidazo[1,2-a]pyridine-3-carboxamide] | < 40% |
| CCc1nc2cc(Cl)c(Cl)cn2c1C(=O)NCc1ccc(OC(F)(F)F)cc1 [compound 178, 6,7-Dichloro-2-ethyl-N-(4-(trifluoromethoxy)benzyl)imidazo[1,2-a]pyridine-3-carboxamide] | < 40% |
| CCc1nc2ccc(Cl)cn2c1C(=O)N1CCC(OCc2ccc(OC)cc2)CC1 [compound 335, (6-chloro-2-ethylimidazo[1,2-a]pyridin-3-yl)(4-((4-methoxybenzyl)oxy)piperidin-1-yl)methanone] | < 40% |
| CCc1nc2ccc(Cl)cn2c1C(=O)NCc1ccc(C(C)(C)C)cc1 [compound 63] | 40 to 69% |
| CCc1nc2cc(Cl)ccn2c1C(=O)NCc1ccc(Nc2ccc(OC(F)(F)F)cc2)cc1 [compound 175, 7-Chloro-2-ethyl-N-(4-(4-(trifluoromethoxy)phenylamino)benzyl)imidazo[1,2-a]pyridine-3-carboxamide] | > 69% |
| CCc1nc2ccc(Cl)cn2c1C(=O)NCc1ccc(N2CCC(O)(C(C)(C)C)CC2)cc1 [compound 322, N-(4-(4-(tert-butyl)-4-hydroxypiperidin-1-yl)benzyl)-6-chloro-2-ethylimidazo[1,2-a]pyridine-3-carboxamide] | < 40% |
| CCc1nc2c(F)cccn2c1C(=O)NCc1ccc(OC(F)(F)F)cc1 [compound 282, 2-Ethyl-8-fluoro-N-(4-(trifluoromethoxy)benzyl)imidazo[1,2-a]pyridine-3-carboxamide] | < 40% |
| CCc1nc2ccc(Cl)cn2c1C(=O)NCC1CCCc2c1cnn2-c1ccc(OC(F)(F)F)cc1 (centres unmarked) [compound 147, 6-Chloro-2-ethyl-N-((1-(4-(trifluoromethoxy)phenyl)-4,5,6,7-tetrahydro-1H-indazol-4-yl)methyl)imidazo[1,2-a]pyridine-3-carboxamide] | 40 to 69% |
| CCc1nc2ccc(Cl)cn2c1CNCc1ccc(N2CCC3(CC2)OCCO3)cc1 [compound 346, N-(4-(1,4-dioxa-8-azaspiro[4.5]decan-8-yl)benzyl)-1-(6-chloro-2-ethylimidazo[1,2-a]pyridin-3-yl)methanamine] | < 40% |
| CCc1nc2ccc(Cl)cn2c1C(=O)NCC1CCCc2c1cnn2-c1ccc(F)cc1 (centres unmarked) [compound 149, 6-Chloro-2-ethyl-N-((1-(4-fluorophenyl)-4,5,6,7-tetrahydro-1H-indazol-4-yl)methyl)imidazo[1,2-a]pyridine-3-carboxamide] | 40 to 69% |
| CCc1nc2ccc(Cl)cn2c1C(=O)NCc1ccc(OCc2ccc(F)cc2)cc1 [compound 172, 6-Chloro-2-ethyl-N-(4-(4-fluorobenzyloxy)benzyl)imidazo[1,2-a]pyridine-3-carboxamide] | < 40% |
| CCc1nc2ccc(Cl)cn2c1C(=O)NCc1ccc(N2CCC(C)(O)CC2)cc1 [compound 321, 6-chloro-2-ethyl-N-(4-(4-hydroxy-4-methylpiperidin-1-yl)benzyl)imidazo[1,2-a]pyridine-3-carboxamide] | < 40% |
| CCc1nc2ccc(F)cn2c1C(=O)NCc1ccc(OCc2ccc(OC(F)(F)F)cc2)cc1 [compound 205, 2-Ethyl-6-fluoro-N-(4-(4-(trifluoromethoxy)benzyloxy)benzyl)imidazo[1,2-a]pyridine-3-carboxamide] | 40 to 69% |

Next, values leading:

| inhibition at 10 µM | SMILES |
| --- | --- |
| < 40% | O=C(NCc1ccccc1)c1c(C2CC2)nc2ccccn12 [compound 38, N-Benzyl-2-cyclopropylimidazo[1,2-a]pyridine-3-carboxamide] |
| > 69% | CCCCCNc1ccc(CNC(=O)c2c(CC)nc3cc(Cl)ccn23)cc1 [compound 110, 7-Chloro-2-ethyl-N-(4-(pentylamino)benzyl)imidazo[1,2-a]pyridine-3-carboxamide] |
| 40 to 69% | CCc1nc2cc(Cl)ccn2c1C(=O)NCc1ccc(-c2ccc(C#N)cc2C)cc1 [compound 109, 7-Chloro-N-((4′-cyano-2′-methylbiphenyl-4-yl)methyl)-2-ethylimidazo[1,2-a]pyridine-3-carboxamide] |
| < 40% | Cc1nc2ccccn2c1C(=O)NCc1cccnc1 [compound 5, 2-Methyl-N-(pyridin-3-ylmethyl)imidazo[1,2-a]pyridine-3-carboxamide] |
| 40 to 69% | Cc1nc2cccc(C)n2c1C(=O)NCc1ccccc1 [compound 34, N-Benzyl-2,5-dimethylimidazo[1,2-a]pyridine-3-carboxamide] |
| < 40% | Cc1nc2cc(-c3ccccc3)ccn2c1C(=O)O [compound 19, 2-Methyl-7-phenylimidazo[1,2-a]pyridine-3-carboxylic acid] |
| 40 to 69% | Cc1nc2cc(-c3ccccc3)ccn2c1C(=O)NCc1ccccc1 [compound 22, N-Benzyl-2-methyl-7-phenylimidazo[1,2-a]pyridine-3-carboxamide] |
| < 40% | CCc1nc2ccccn2c1C(=O)NCc1ccc(Oc2ccccc2)cc1 [compound 45, 2-Ethyl-N-(4-phenoxybenzyl)imidazo[1,2-a]pyridine-3-carboxamide] |
| < 40% | Cc1nc2ccccn2c1C(=O)Nc1ccncc1 [compound 11, 2-Methyl-N-(pyridin-4-yl)imidazo[1,2-a]pyridine-3-carboxamide] |
| < 40% | CCc1nc2ccc(Cl)cn2c1C(=O)N1CCC(OCc2ccccc2F)CC1 [compound 337, (6-chloro-2-ethylimidazo[1,2-a]pyridin-3-yl)(4-((2-fluorobenzyl)oxy)piperidin-1-yl)methanone] |
| < 40% | CCc1nc2ccc(Cl)cn2c1CNC1CCN(Cc2ccccc2)C1 (centres unmarked) [compound 345, 1-Benzyl-N-((6-chloro-2-ethylimidazo[1,2-a]pyridin-3-yl)methyl)pyrrolidin-3-amine] |
| < 40% | CCOC(=O)c1c(C)nc2ccccn12 [compound 1, Ethyl 2-methylimidazo[1,2-a]pyridine-3-carboxylate] |
| > 69% | CCc1nc2cc(Cl)ccn2c1C(=O)NCc1ccc(-c2cccc(C)c2)cc1 [compound 86, 7-Chloro-2-ethyl-N-((3′-methylbiphenyl-4-yl)methyl)imidazo[1,2-a]pyridine-3-carboxamide] |
| < 40% | O=C(NCc1ccc(-c2ccccc2)cc1)c1c(C(F)(F)F)nc2ccc(Cl)cn12 [compound 80, N-(Biphenyl-4-ylmethyl)-6-chloro-2-(trifluoromethyl)imidazo[1,2-a]pyridine-3-carboxamide] |
| < 40% | CCc1nc2ccc(Cl)cn2c1C(=O)NCc1ccc(-c2ccc(C#N)cc2)cc1 [compound 97, 6-Chloro-N-((4′-cyanobiphenyl-4-yl)methyl)-2-ethylimidazo[1,2-a]pyridine-3-carboxamide] |
| < 40% | Cc1nc2c(C(F)(F)F)cccn2c1C(=O)NCc1ccccc1 [compound 36, N-Benzyl-2-methyl-8-(trifluoromethyl)imidazo[1,2-a]pyridine-3-carboxamide] |
| < 40% | CCc1nc2cc(Cl)ccn2c1C(=O)NCc1ccc2oc(-c3ccc(F)cc3)nc2c1 [compound 259, 7-Chloro-2-ethyl-N-((2-(4-fluorophenyl)benzo[d]oxazol-5-yl)methyl)imidazo[1,2-a]pyridine-3-carboxamide] |
| 40 to 69% | CCOC(=O)c1c(C)nc2ccc(-c3ccccc3)cn12 [compound 27, Ethyl 2-methyl-6-phenylimidazo[1,2-a]pyridine-3-carboxylate] |

same assay, conditions: 6 or 11 point dose response in duplicate

| SMILES | IC50 |
| --- | --- |
| CCc1nc2cc(Cl)ccn2c1C(=O)NCc1ccc(Nc2ccc(OC(F)(F)F)cc2)cc1 [compound 175, 7-Chloro-2-ethyl-N-(4-(4-(trifluoromethoxy)phenylamino)benzyl)imidazo[1,2-a]pyridine-3-carboxamide] | 1 to 20 µM |
| CCc1nc2ccc(Cl)cn2c1C(=O)N1CC[C@H](OCc2ccc(OC(F)(F)F)cc2)C1 [compound 390, (S)-(6-chloro-2-ethylimidazo[1,2-a]pyridin-3-yl)(3-(4-(trifluoromethoxy)benzyloxy)-pyrrolidin-1-yl)methanone] | 1 to 20 µM |
| CCc1nc2ccc(Cl)cn2c1C(=O)N1CCCC(OCc2ccc(OC(F)(F)F)cc2)C1 (centres unmarked) [compound 382, (6-chloro-2-ethylimidazo[1,2-a]pyridin-3-yl)(3-(4-(trifluoromethoxy)benzyloxy)-piperidin-1-yl)methanone] | 1 to 20 µM |
| CCc1nc2ccc(Cl)cn2c1CNc1ccc(Oc2ccc(OC(F)(F)F)cc2)cc1 [compound 394, N-((6-chloro-2-ethylimidazo[1,2-a]pyridin-3-yl)methyl)-4-(4-(trifluoromethoxy)-phenoxy)aniline] | < 1 µM |

The next lines start with the values.

| IC50 | SMILES |
| --- | --- |
| > 20 µM | CCCCCNc1ccc(CNC(=O)c2c(CC)nc3cc(Cl)ccn23)cc1 [compound 110, 7-Chloro-2-ethyl-N-(4-(pentylamino)benzyl)imidazo[1,2-a]pyridine-3-carboxamide] |
| 1 to 20 µM | CCc1nc2cc(Cl)ccn2c1C(=O)NCc1ccc(-c2cccc(C)c2)cc1 [compound 86, 7-Chloro-2-ethyl-N-((3′-methylbiphenyl-4-yl)methyl)imidazo[1,2-a]pyridine-3-carboxamide] |
